The results in this text go back to US9718812B2, “Substituted thiazole or oxazole P2X7 receptor antagonists” (Axxam S.P.A., priority 2014, dated 2017).

P2X7 receptor (hP2X7), sequence (Q99572 whole entry): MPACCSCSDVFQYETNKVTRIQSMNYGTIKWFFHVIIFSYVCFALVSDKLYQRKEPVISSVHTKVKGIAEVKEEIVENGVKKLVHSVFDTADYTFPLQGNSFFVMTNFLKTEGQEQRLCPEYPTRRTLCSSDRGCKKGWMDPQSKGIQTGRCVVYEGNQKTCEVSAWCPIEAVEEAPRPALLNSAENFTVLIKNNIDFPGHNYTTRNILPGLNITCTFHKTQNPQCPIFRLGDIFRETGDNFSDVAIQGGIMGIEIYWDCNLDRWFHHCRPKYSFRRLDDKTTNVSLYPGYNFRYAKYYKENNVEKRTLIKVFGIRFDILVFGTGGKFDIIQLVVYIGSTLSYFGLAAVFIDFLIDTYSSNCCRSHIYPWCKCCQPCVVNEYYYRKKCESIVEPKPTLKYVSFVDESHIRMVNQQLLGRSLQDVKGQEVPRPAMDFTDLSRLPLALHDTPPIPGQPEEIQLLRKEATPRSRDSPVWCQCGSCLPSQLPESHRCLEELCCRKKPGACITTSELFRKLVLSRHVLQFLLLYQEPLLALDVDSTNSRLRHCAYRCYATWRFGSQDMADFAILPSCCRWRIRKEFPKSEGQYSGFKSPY

This assay concerns the target P2X7 receptor (hP2X7) (Homo sapiens (Human), UniProt Q99572). In words: Screen Quest Fluo-8 No Wash Calcium Assay (Bz-ATP-induced Ca2+ influx, FLIPR TETRA). Type of assay: cell-based. Conditions: HEK-293 cells stably transfected with P2X7 receptor, Fluo-8 calcium, Low Divalent Cation Assay Buffer. As to the method: Extracellular binding of Bz-ATP to P2X7 receptor opens the channel and allows Ca2+ influx into the cells. This Ca2+ entry was measured in HEK-293 cells stably transfected with P2X7 receptor using Screen Quest™ Fluo-8 No Wash Calcium Assay Kit (AAt Bioquest®, cat. 36316). Once inside the cell, the lipophilic blocking groups of Fluo-8 are cleaved by non-specific cell esterases, resulting in a negatively-charged fluorescent dye that stays inside cells. Its fluorescence increases upon binding to calcium. When HEK-293/P2X7 cells are stimulated with Bz-ATP, Ca2+ enters the cells and the fluorescence of Fluo-8 NW increases. The dye has an absorption spectrum compatible with excitation at 488 nm by argon laser sources and its emission wavelength is in the range of 515-575 nm.
HEK-293 cells stably transfected with P2X7 receptor were seeded overnight in growth medium at 10,000 to 20,000 cells/well in 384-well plate. 24 hours later, the medium was removed and the cells were pre-loaded at RT for 1 hour with 20 μL/w of Fluo-8 NW. Then 10 μL/w of test compounds and reference antagonist A438079 at 3×-concentration were injected with the […] and the kinetic response over a period of five minutes was monitored.
With `Cc1ncsc1C(CNC(=O)c1c(F)cccc1Cl)N1CCCC(F)(F)C1` (centres unmarked) [Compound 64, 2-chloro-N-[2-(3,3-difluoropiperidin-1-yl)-2-(4-methyl-1,3-thiazol-5-yl)ethyl]-6-fluorobenzamide], the IC50 was 253 nM.
The figure for `Cc1ncsc1C(CNC(=O)c1cc(-c2ncc(F)cn2)ccc1Cl)N1CC(F)(F)C1` (centres unmarked) [Compound 65, 2-chloro-N-[2-(3,3-difluoroazetidin-1-yl)-2-(4-methyl-1,3-thiazol-5-yl)ethyl]-5-(5-fluoropyrimidin-2-yl)benzamide] is 39 nM.
The figure for `COc1ccc(-c2ncc(F)cn2)cc1C(=O)NCC(c1scnc1C)N1CCC(F)(F)CC1` (centres unmarked) [Compound 71, N-[2-(4,4-difluoropiperidin-1-yl)-2-(4-methyl-1,3-thiazol-5-yl)ethyl]-5-(5-fluoropyrimidin-2-yl)-2-methoxybenzamide] is 355 nM; for `Cc1ncsc1C(CNC(=O)c1cc(-c2ncc(F)cn2)ccc1Cl)N1CCC(Oc2ccccc2)CC1` (centres unmarked) [Compound 73, 2-chloro-5-(5-fluoropyrimidin-2-yl)-N-[2-(4-methyl-1,3-thiazol-5-yl)-2-(4-phenoxypiperidin-1-yl)ethyl]benzamide] it is 238 nM; for `Cc1ncc(C(CNC(=O)c2cc(-c3cnccn3)ccc2Cl)N2CCC(F)(F)CC2)s1` (centres unmarked) [Compound 78, 2-chloro-N-[2-(4,4-difluoropiperidin-1-yl)-2-(2-methyl-1,3-thiazol-5-yl)ethyl]-5-(pyrazin-2-yl)benzamide] it is 133 nM.
Then `Cc1cccc(-c2ccc(Cl)c(C(=O)NCC(c3cnc(C)s3)N3CCC(F)(F)CC3)c2)n1` (centres unmarked) [Compound 79, 2-chloro-N-[2-(4,4-difluoropiperidin-1-yl)-2-(2-methyl-1,3-thiazol-5-yl)ethyl]-5-(6-methylpyridin-2-yl)benzamide], with 206 nM; and `Cc1ncc(C(CNC(=O)c2cc(-c3ncc(F)cn3)ccc2F)N2CCC(F)(F)CC2)s1` (centres unmarked) [Compound 80, N-[2-(4,4-difluoropiperidin-1-yl)-2-(2-methyl-1,3-thiazol-5-yl)ethyl]-2-fluoro-5-(5-fluoropyrimidin-2-yl)benzamide], with 292 nM; and `O=C(NCC(c1cnc(C(F)(F)F)s1)N1CCC(F)(F)CC1)c1cc(-c2ncc(F)cn2)ccc1Cl` (centres unmarked) [Compound 82], with 737 nM.
Take `O=C(NCC(c1cnc(C2CC2)s1)N1CCC(F)(F)CC1)c1cc(-c2ncc(F)cn2)ccc1F` (centres unmarked) [Compound 86, N-[2-(2-cyclopropyl-1,3-thiazol-5-yl)-2-(4,4-difluoropiperidin-1-yl)ethyl]-2-fluoro-5-(5-fluoropyrimidin-2-yl)benzamide]: the IC50 turned out to be 495 nM.
On to `Cc1ncsc1C(CNC(=O)c1c(F)cccc1Cl)N1CCOC(c2ccccc2C(F)(F)F)C1` (centres unmarked) [Compound 90, 2-chloro-6-fluoro-N-[2-(4-methyl-1,3-thiazol-5-yl)-2-{2-[2-(trifluoromethyl)phenyl]morpholin-4-yl}ethyl]benzamide], for which the IC50 was determined as 412 nM.
The figure for `Cc1ncsc1C(CNC(=O)c1c(F)cccc1Cl)N1CCOC(c2cnn(C)c2)C1` (centres unmarked) [Compound 92, 2-chloro-6-fluoro-N-[2-(4-methyl-1,3-thiazol-5-yl)-2-[2-(1-methyl-1H-pyrazol-4-yl)morpholin-4-yl]ethyl]benzamide] is 171 nM; for `Cc1ncsc1C(CNC(=O)c1cc(-c2ncc(F)cn2)ccc1F)N1CCOC2(CCC2)C1` (centres unmarked) [Compound 94, 2-fluoro-5-(5-fluoropyrimidin-2-yl)-N-[2-(4-methyl-1,3-thiazol-5-yl)-2-{5-oxa-8-azaspiro[3.5]nonan-8-yl}ethyl]benzamide] it is 321 nM.
Then `Cc1ncsc1C(CNC(=O)c1c(F)cccc1Cl)N1CCOC2(CCC2)C1` (centres unmarked) [Compound 96, 2-chloro-6-fluoro-N-[2-(4-methyl-1,3-thiazol-5-yl)-2-{5-oxa-8-azaspiro[3.5]nonan-8-yl}ethyl]benzamide], with 989 nM.
Then `Cc1ncsc1C(CNC(=O)c1cc(-c2ncc(F)cn2)ccc1Cl)N1CCOC(c2cnn(C)c2)C1` (centres unmarked) [Compound 97], with 139 nM.
Turning to `Cc1ncsc1C(CNC(=O)c1cc(-c2ncc(F)cn2)ccc1F)N1CCOC(c2cnn(C)c2)C1` (centres unmarked) [Compound 98], the IC50 turned out to be 142 nM.
Take `Cc1ncsc1C(CNC(=O)c1cc(-c2ncc(F)cn2)ccc1Cl)N1CCC(F)(F)CC1C` (centres unmarked) [Compound 103, 2-chloro-N-[2-(4,4-difluoro-2-methylpiperidin-1-yl)-2-(4-methyl-1,3-thiazol-5-yl)ethyl]-5-(5-fluoropyrimidin-2-yl)benzamide]: the half-inhibitory concentration (IC50) came out at 186 nM.
With `Cc1ncsc1C(CNC(=O)c1c(F)cccc1Cl)N1CCC(F)(F)CC1C` (centres unmarked) [Compound 104, 2-chloro-N-[2-(4,4-difluoro-2-methylpiperidin-1-yl)-2-(4-methyl-1,3-thiazol-5-yl)ethyl]-6-fluorobenzamide], the IC50 came to 1870 nM.
In the case of `Cc1ncc(C(CNC(=O)c2cc(-c3ncc(F)cn3)ccc2Cl)N2CCC(F)(F)CC2C)s1` (centres unmarked) [Compound 113, 2-chloro-N-[2-(4,4-difluoro-2-methylpiperidin-1-yl)-2-(2-methyl-1,3-thiazol-5-yl)ethyl]-5-(5-fluoropyrimidin-2-yl)], the IC50 came out at 743 nM.
`Cc1ncsc1C(CNC(=O)c1ccc(N2CCCS2(=O)=O)cc1Cl)N1CCC(F)(F)CC1` (centres unmarked) [Compound 114]: the IC50 was 367 nM.
The figure for `O=C(NCC(c1cnc(C2CCC(F)(F)CC2)s1)N1CCC(F)(F)CC1)c1c(F)cccc1Cl` (centres unmarked) [Compound 117, 2-chloro-N-{2-[2-(4,4-difluorocyclohexyl)-1,3-thiazol-5-yl]-2-(4,4-difluoropiperidin-1-yl)ethyl}-6-fluorobenzamide] is 429 nM.
Then `CC(C)(C)c1ncc(C(CNC(=O)c2c(F)cccc2Cl)N2CCC(F)(F)CC2)s1` (centres unmarked) [Compound 118, N-[2-(2-tert-butyl-1,3-thiazol-5-yl)-2-(4,4-difluoropiperidin-1-yl)ethyl]-2-chloro-6-fluoro-benzamide], with 243 nM; and `O=C(NCC(c1scnc1C1CC1)N1CCC(F)(F)CC1)c1cc(-c2ncc(F)cn2)ccc1Cl` (centres unmarked) [Compound 119], with 319 nM; and `Cc1ncsc1C(CNC(=O)c1cc2c(cc1F)NC(=O)CC2)N1CCC(F)(F)CC1` (centres unmarked) [Compound 120, N-[2-(4,4-difluoropiperidin-1-yl)-2-(4-methyl-1,3-thiazol-5-yl)ethyl]-7-fluoro-2-oxo-1,2,3,4-tetrahydroquinoline-6-], with 6910 nM.
As to `O=C(NCC(c1scnc1C1CC1)N1CCC(F)(F)CC1)c1cccc2ncccc12` (centres unmarked) [Compound 121, N-[2-(4-cyclopropyl-1,3-thiazol-5-yl)-2-(4,4-difluoropiperidin-1-yl)ethyl]quinoline-5-carboxamide], the half-maximal inhibitory concentration (IC50) was 531 nM.
Then `CC(C)(C)c1ncc(C(CNC(=O)c2cc(-c3ncc(F)cn3)ccc2Cl)N2CCC(F)(F)CC2)s1` (centres unmarked) [Compound 122, N-[2-(2-tert-butyl-1,3-thiazol-5-yl)-2-(4,4-difluoropiperidin-1-yl)ethyl]-2-chloro-5-(5-fluoropyrimidin-2-yl)benzamide], with 1060 nM.
In the case of `O=C(NCC(c1scnc1C1CC1)N1CCC(F)(F)CC1)c1c(F)cccc1Cl` (centres unmarked) [Compound 123, 2-chloro-N-[2-(4-cyclopropyl-1,3-thiazol-5-yl)-2-(4,4-difluoropiperidin-1-yl)ethyl]-6-fluorobenzamide], the IC50 turned out to be 279 nM.

As usually defined, the IC50 is the concentration that inhibits the measured activity by half.
